The test system of assay [1] is PLC-β4^−/− mice. The assay is described as follows: Elevated plus-maze after rivastigmine. In kind it is in vivo. The settings on record: 0.5 mg/kg i.p., 60 min before test. On the procedure:
The elevated plus-maze consists of two open and two enclosed arms of the same size (45^┘ 5 cm) with walls 15 cm high. The arms, constructed of black acrylic, radiate from a central platform (5^┘ 5 cm) to form a plus sign. The entire apparatus was elevated to a height of 30 cm above floor level. Each mouse was placed in the central platform facing one of the open arms. The number of entries into the open and closed arms and the time spent on the open and closed arms were recorded during a 5 min test period (Parks, C. L. et al., Proc. Natl. Acad. Sci. USA 95, 10734-10739; 1998; Ramboz, S. et al., Proc. Natl. Acad. Sci. USA 95, 14476-14481, 1998; Gross, C. et al., Nature 416, 396-400, 2002).
(§1) rivastigmine (Novartis Pharma, Basel, Switzerland), which is a cholinergic enhancer, was dissolved in saline. Animals were injected intraperitoneally (i.p.) with 0.5 mg/kg rivastigmine 60 min before the start of anxiety behavioral test (total volume, 5 ml/kg). […]

Assay [2] relates to hippocampus acetylcholine concentration. The settings on record: 0.5 mg/kg of rivastigmine; microdialysis; cited from earlier work.
Assay [3] deals with PLC-β4^−/− mice. Nature of the assay: Three anxiety behavioral assays after rivastigmine (overall). To be noted: 0.5 mg/kg i.p., 60 min after injection. In kind it is in vivo. As to the method: (§2) rivastigmine (Novartis Pharma, Basel, Switzerland), which is a cholinergic enhancer, was dissolved in saline. Animals were injected intraperitoneally (i.p.) with 0.5 mg/kg rivastigmine 60 min before the start of anxiety behavioral test (total volume, 5 ml/kg). […] Both PLC-β4^+/+(WT) and PLC-β4^−/−(KO) mice were randomly assigned to one of the following treatment groups: (1) WT-sham (wild-type mice with intraperitoneal injection of saline; n=10), (2) KO-sham (PLC-β4^−/− mice with intraperitoneal injection of saline; n=10), and (3) KO-rivastigmine (PLC-β4^−/− mice with intraperitoneal injection of rivastigmine; n=10). rivastigmine is a second-generation carbamate-based reversible non-competitive AChE and butyrylChE (BuChE) inhibitor. The reason for choosing the inhibitor is that an inhibitory effect sustains for a long period of time, the inhibitor is specific to the brain (Enz, A. et al., Prog. Brain Res. 98, 431-438, 1993), and the inhibitor selectively increases cholin activity in hippocampus and cortex (Weinstock, M., et al., J. Neural Transm. Suppl. 43, 219-225, 1994).
(§3) Whether rivastigmine administration could also rescue the increased anxiety phenotype of PLC-β4^−/− mice was investigated. To this end, rivastigmine (0.5 mg/kg, i.p.) was injected into PLC-β4^−/− mice and, 60 min after injection, the rivastigmine treated group was subjected to three anxiety behavioral assays.

Assay [4] concerns PLC-β4^−/− mice. The assay is described as follows: Hippocampal EEG theta rhythm in a novel environment after rivastigmine. It is filed as in vivo. To be noted: 0.5 mg/kg i.p. On the procedure: For electrode implantation, the animals were anesthetized with pentobarbital ([…], i.p.) and held in a stereotaxic apparatus with bregma and lambda in the same horizontal plane. Hippocampal EEG recordings were performed using Teflon-coated tungsten electrodes (150 um) implanted in the hippocampal fissure with grounding over the cerebellum (from bregma, 2.0 mm anteroposterior, 1.2 mm mediolateral, and 1.8 mm dorsoventral). The position of the electrodes was verified by light microscopy in Nissl-stained sections according to published protocols. Field potential was amplified (×1,000), bandpass-filtered (bandpass-filtered) (0.1-100 Hz), digitized with 12-bit resolution continuously at 1 kHz sampling, and recorded on a personal computer.
The EEG EEG data were collected in 4 s segments and fast-Fourier transformed (FFT). The data were continuously monitored for movement artifacts, and the recording of each segment was manually verified by the experimenter, blinded to the genotype of the animals. […] To compare the EEG spectral characteristics of hippocampal electrical activities, EEG spectral power in 1 Hz bins was calculated using FFT (Hamming window) of each 4 s epoch. […]
Cholinergic and noncholinergic theta rhythms associated with different behaviors were recorded. […] Non-cholinergic type I theta rhythms were recorded from mice walking in an open chamber or running on a wheel. […]

The subject of assay [5] is PLC-β4^−/− mice. The assay is described as follows: Open-field thigmotaxis test after rivastigmine. In kind it is in vivo. The settings on record: 0.5 mg/kg i.p., 60 min before test. As to the method:
Open field thigmotaxis was assessed by placing mice in the center of an open field apparatus (40×40×40 cm) under dim lighting. During a 10 min observation period, locomotor activity, number of central crosses, and time spent in the central sector of the open field were recorded and analyzed by PC-based video behavior assay system (TSE, Bad Homburg, Germany). Thigmotaxis index was defined as a ratio of the number of entries into the central part of a testing arena to the locomotor activity. The thigmotaxis index was calculated for each mouse separately and used to calculate means and SEMs for a given experimental group (Treit, D. & Fundytus, M., Pharmacol. Biochem. Behav. 31, 959-962, 1988; Sienkiewicz-Jarosz, H. et al., J Neural Transm. 107, 1403-1412, 2000).
as §2, §3

Assay [6] has as its system PLC-β4^−/− mice. The assay is described as follows: Light/dark transition test after rivastigmine. In kind it is in vivo. The settings on record: 0.5 mg/kg i.p., 60 min before test.
From the text: The apparatus used for the light/dark transition test consisted of a cage (25×40×20 cm) divided into two compartments by a black partition containing a small opening that allows the mouse to move from one compartment to the other. One compartment, comprising two-thirds of the surface area, was made of white plastic and was brightly illuminated; the adjoining smaller compartment was black and dark. Mice were placed in the dark compartment and allowed to move freely between the two chambers for 5 min. The number of transitions between the two compartments, time spent in each chamber, and latency to the first transition were recorded (Welch, J. M. et al., Nature 448, 894-900, 2007).
as §1

In the case of `CCN(C)C(=O)Oc1cccc([C@H](C)N(C)C)c1` [rivastigmine], in the assay on PLC-β4^−/− mice [1], the “entries into the open arms” value is “indistinguishable from wild-type mice injected with saline”. Besides, the “total entries into the closed and open arms” value with PLC-β4^−/− mice [1] (three groups) was “did not differ among the three groups”. Besides, in assay [2], the “increase of hippocampus acetylcholine concentration” value is “about 100%”. The “increased anxiety phenotype in each of the three anxiety tests” value in the assay with PLC-β4^−/− mice [3] is reported as “showed a reversal of the increased anxiety phenotype”. Moreover, in the assay with PLC-β4^−/− mice [4] (alert immobility, novel environment), the “amplitude of the cholinergic theta rhythms” value is “restored to a level similar to that of the wild-type mice injected with saline”. Also, the “amplitude of non-cholinergic type I theta rhythms” value with PLC-β4^−/− mice [4] (recorded during locomotion (walking) in new open field, vs saline-injected KO and WT mice) is recorded as “not significantly different among the three groups”. Also, in the assay on PLC-β4^−/− mice [5], the “locomotion in the center of the open field” value is recorded as “wild-type levels of locomotion in the center of the open field”, the thigmotaxis index result is “reduced thigmotaxis index to the same levels as those in wild-type mice injected with saline”, the “time spent in the central sector of the open field” value is on record as “levels comparable with those in wild-type mice injected with saline” and the “total locomotion activities in the open field” value is on record as “wild-type levels of total locomotion activities”. Besides, in the assay on PLC-β4^−/− mice [6], the “time in the light chamber” value was “indistinguishable from that of wild-type mice injected with saline”; the “transitions between light and dark boxes” value was “indistinguishable from that of wild-type mice injected with saline”.

The values above are taken from patent publication US20120143074A1, “METHOD OF EVALUATING SUITABILITY FOR DRUG THERAPY FOR THE PREVENTION AND TREATMENT OF ANXIETY DISORDERS USING CHOLINERGIC TYPE II THETA RHYTHM” (priority 2009, published 2012).
